Consider eleven molecules from PubChem BioAssay AID2060494 (Molecular Pharmacology Branch, DTP, NCI, 2025).

By viability, T/C is commonly meant the ratio of treated to control. The IC50 is the concentration at which inhibition is half-maximal.

In the assay the test system is 435261-313-R-J1-PDC complex spheroid viability. The assay is described as follows: Anticancer human tumor 435261-313-R-J1-PDC patient-derived colon adenocarcinoma cell line growth inhibition [GQUAD]. The following applies: for viability, T/C: stronger effect = lower value. An excerpt: DNA G-quadruplex Stabilizer Agents in Combinations in Complex Spheroids
A high-throughput screen of multi-cell type tumor spheroids was designed to identify active combinations of DNA G-quadruplex stabilizer agents and targeted small molecules. Complex spheroids include a stromal component modeled by human endothelial cells (HUVEC) and fibroblasts modeled by human mesenchymal stem cells (MSCs). The concentration ranges selected for each drug and investigational agent were based upon clinically achievable concentrations if the clinical Cmax of the agent was known.
Compounds. The drugs and investigational agents: pidnarulex (CX-5461; NSC782164), APTO-253 (NSC789042), BRACO-19 (NSC847499), peposertib (NSC802822), ceralasertib (NSC780249), elimusertib (NSC800525), camonsertib (NSC841442), AZD-1390 (NSC803789), olaparib (NSC753686), talazoparib (NSC767125), ART-558 (NSC835418), sotorasib (NSC818433), MRTX-1133 (NSC836407), SN-38 (NSC673596), topotecan (NSC609699), etoposide (NSC141540), doxorubicin (NSC123127), gemcitabine (NSC613327), 5-fluorouracil (NSC19893), paclitaxel (NSC125973), vemurafenib (NSC761431), panobinostat (NSC761190), R-306465 (JNJ-16241199; NSC773264), adavosertib (NSC754352), TP-3654 (NSC805149), carboplatin (NSC241240), KSQ-4279 (NSC840948), and staurosporine (NSC755774) were obtained from the National Cancer Institute (NCI) Developmental Therapeutics Program Chemical Repository (34). The FDA-approved anticancer drug set is available from the NCI Developmental Therapeutics Program. […] The stock solutions were prepared in dimethyl sulfoxide (DMSO, Sigma-Aldrich, St. Louis, MO, cat. D2650) at 800-fold the tested concentration and stored at -70 degrees C prior to their use. All drugs and investigational agents were tested over a range starting from a high concentration at or near the clinical Cmax and decreasing in half-log increments. If the clinical Cmax for an agent had not been determined, the highest concentration tested was 10 microM.
2.3 Cell Culture. All cells were maintained in an incubator at 37 degrees C and 5% CO2 with 95% humidity. The PDC lines were cultured according to standard operating procedures established by the NCI PDMR. All PDCs were thawed and cultured in Matrigel-coated flasks prepared with a working solution of 1X Ham's F-12 nutrient mix, without supplementation (Invitrogen, cat. 11765054), 100 U/mL penicillin-streptomycin (Invitrogen, cat. 15140122), and 2.5% Matrigel (Corning Inc., cat. 354248) for the first three passages. The 857933-349-R-J2-PDC line was cultured in 6C/Colon 1B media, which includes advanced DMEM/F-12 (Thermo Fisher Scientific, cat. 12634028), 10 mM HEPES (Thermo Fisher Scientific, cat. 15630080), 1X GlutaMAX supplement (Thermo Fisher Scientific, cat. 35050061), 0.1 mg/mL primocin (InvivoGen, cat. ant-pm-2), 10% defined fetal bovine serum, heat inactivated (HyClone Laboratories Inc., cat. SH30070.03HI), 50% L-WRN conditioned media (ATCC, cat. CRL-3276), 1.25 mM N-Acetyl-L-cysteine (Sigma-Aldrich, cat. A9165), 10 mM nicotinamide (Sigma-Aldrich, cat. N0636), 1X B-27 supplement (Thermo Fisher Scientific, cat. 17504044), 1X N-2 supplement (Thermo Fisher Scientific, cat. 17502048), 10 microM Y-27632 dihydrochloride (Tocris Bioscience, cat. 1254), and 50 ng/mL human EGF recombinant protein (Thermo Fisher Scientific, cat. PHG0311). The 485176-168-R4-J1-PDC line was cultured in Panc media, which includes all 6C/Colon 1B media components plus 100 ng/mL human FGF-10 (Thermo Fisher Scientific, cat. 100-26), 500 nM SB-431542 (Selleckchem, cat. S1067), and gastrin (Tocris, cat. 3006).
[…]

Where “and” joins values, the source holds several entries; their conditions need not be identical. Equal values may be shown once.
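Further: spheroids exposed to the agents for seven days before readout.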
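Wherever viability, T/C is given: percent of vehicle control viability with DMSO wells as 100%.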

Turning to `COc1cc(C2c3cc4c(cc3C(OC3OC5COC(C)OC5C(O)C3O)C3COC(=O)C23)OCO4)cc(OC)c1O` (centres undefined), the viability, T/C (compound 0.0316 µM) was 118% and 96.2%; the viability, T/C (compound 0.1 µM) is 67.4% and 93.6%; the viability, T/C (compound 0.316 µM) was 83.6% and 91.3%; the viability, T/C (compound 1 µM) is 56.6% and 80.2%; the viability, T/C (compound 3.16 µM) is 62.7% and 78.5%; the viability, T/C (compound 10 µM) is 52.2% and 61.6%. Where the note is “curve of compound”, the IC50 is more than 10000 nM.

Take `COc1ccc([C@@H](O)c2cc(-c3ncnc4cc(N5CCOCC5)ccc34)c(F)cc2Cl)nn1`: the viability, T/C is 105% and 99% and 90.9% (compound 0.0316 µM); 69.6% and 82.1% and 74.6% (compound 0.1 µM); 81.5% and 103% and 90.2% (compound 0.316 µM); 62.6% and 71.3% and 49.3% (compound 1 µM); 38.6% and 47.8% and 37.7% (compound 3.16 µM); 30.6% and 31.7% and 25.6% (compound 10 µM). The IC50 (curve of compound) was 1930 nM and 2610 nM and 976 nM.

Turning to `COc1cccc2c1C(=O)c1c(O)c3c(c(O)c1C2=O)CC(O)(C(=O)CO)CC3OC1CC(N)C(O)C(C)O1` (centres undefined), the viability, T/C is 94.1% and 85% (compound 0.0316 µM); 67.5% and 76.3% (compound 0.1 µM); 74.4% and 44% (compound 0.316 µM); 37% and 26.8% (compound 1 µM); 2.3% and 1.87% (compound 3.16 µM); 4.42% and 1.38% (compound 10 µM). Further, under “curve of compound”, the IC50 is 656 nM and 293 nM.

Take `Cc1[nH]c2ccc(F)cc2c1-c1nc2c3cccnc3c3ncccc3c2[nH]1`: the viability, T/C reads like this: (compound 0.0316 µM) 99.6% [middle of 8 runs]; (compound 3.16 µM) 30.2% [middle of 8 runs]; (compound 10 µM) 24.5% [middle of 8 runs]. Moreover, the IC50 (compound alone, run of 02/20/2024) is 1.81 µM [middle of 4 runs]; the IC50 (compound alone, run of 02/26/2024) is 1110 nM and 949 nM and 3310 nM.

Consider `Cc1[nH]c2ccccc2c1CCNCc1ccc(/C=C/C(=O)NO)cc1`, for which the viability, T/C runs as follows: (compound 0.000999 µM) 95.4% and 104%; (compound 0.00316 µM) 69.8% and 120%; (compound 0.00999 µM) 57.5% and 73.5%; (compound 0.0316 µM) 78.2% and 87.4%; (compound 0.0999 µM) 38% and 48.4%; (compound 0.316 µM) 7.05% and 6.56%. Besides, the IC50 (curve of compound) is 69 nM and 100 nM.

As to `Cc1cccc(N(C)C(=O)C2C(O)CCN2c2nc(C)cc(C(F)(F)F)c2C#N)c1` (centres undefined), the viability, T/C was 102% and 105% and 116% (compound 0.0316 µM); 94.8% and 106% and 102% (compound 0.1 µM); 138% and 103% and 89.8% (compound 0.316 µM); 106% and 93.5% and 114% (compound 1 µM); 100% and 89.1% and 85.5% (compound 3.16 µM); 122% and 94.3% and 84% (compound 10 µM). The IC50 (curve of compound) was more than 10000 nM.

Consider `Cc1cnc(CNC(=O)c2c(=O)c3ccc(N4CCCN(C)CC4)nc3n3c2sc2ccccc23)cn1`, for which the viability, T/C was 74.8% [middle of 10 runs] (compound 0.0316 µM); 64.1% [middle of 10 runs] (compound 0.1 µM); 57.7% [middle of 10 runs] (compound 0.316 µM); 46.2% [middle of 10 runs] (compound 1 µM); 9.54% [middle of 10 runs] (compound 3.16 µM); 0.19% [middle of 7 runs] (compound 10 µM).

For the molecule `Cn1ncnc1[C@H]1c2n[nH]c(=O)c3cc(F)cc(c23)N[C@@H]1c1ccc(F)cc1`, the viability, T/C (compound 0.000999 µM) was 129% and 93.2% and 109%; the viability, T/C (compound 0.00316 µM) is 91% and 87% and 106%; the viability, T/C (compound 0.00999 µM) was 114% and 98% and 124%; the viability, T/C (compound 0.0316 µM) is 71.5% and 116% and 74.2%; the viability, T/C (compound 0.0999 µM) was 101% and 65.9% and 81.1%; the viability, T/C (compound 0.316 µM) was 81.1% and 72% and 81.4%. Moreover, for the setting “curve of compound”, the IC50 was more than 316 nM.

With `Nc1ccn(C2OC(CO)C(O)C2(F)F)c(=O)n1` (centres undefined), the viability, T/C (compound 0.0316 µM) is 54.8% and 88.1% and 71.3%; the viability, T/C (compound 0.1 µM) is 48.5% and 89.5% and 58.6%; the viability, T/C (compound 0.316 µM) was 54.9% and 84.8% and 61.3%; the viability, T/C (compound 1 µM) was 51.8% and 98.2% and 50.4%; the viability, T/C (compound 3.16 µM) was 58.7% and 76.3% and 69.7%; the viability, T/C (compound 10 µM) was 51.3% and 66.3% and 51.9%. In addition, under “curve of compound”, the IC50 was more than 10000 nM.

With `O=C(c1cc(Cc2n[nH]c(=O)c3ccccc23)ccc1F)N1CCN(C(=O)C2CC2)CC1`, the viability, T/C is 104% and 96% (compound 0.0316 µM); 101% and 90.4% (compound 0.1 µM); 80.2% and 95.2% (compound 0.316 µM); 98.7% and 88.8% (compound 1 µM); 82.4% and 119% (compound 3.16 µM); 71.2% and 80.3% (compound 10 µM). Besides, the IC50 (curve of compound) is more than 10000 nM.

As to `O=c1[nH]cc(F)c(=O)[nH]1`, the viability, T/C by setting is: (compound 0.0316 µM) 88.6% and 164% and 121%; (compound 0.1 µM) 71.2% and 82.5% and 101%; (compound 0.316 µM) 83% and 89.5% and 119%; (compound 1 µM) 61.4% and 63.8% and 109%; (compound 3.16 µM) 63.2% and 95% and 99.5%; (compound 10 µM) 63.7% and 75% and 70.3%. Moreover, for the setting “curve of compound”, the IC50 was more than 10000 nM.
